From PMC12220852, “An adamantane‐based ligand as a novel chemical tool for thermosensory TRPM8 channel therapeutic modulation” (The Febs Journal, 2025)
“Also recorded” adds a separate entry of the source. Where two headings read alike, the source gives them in different places.

Experiments:
[1] = molecular target: T1, recombinant human TRPM8 stably expressed in HEK293 cells (hTRPM8) (Homo sapiens, UniProt Q7Z2W7); experiment: Ca2+ microfluorimetry screen for agonist/antagonist activity in hTRPM8-HEK293 cells; format: cell-based; details: for Activity (agonist/antagonist): agonism = compound-induced Ca2+ influx, antagonism = modulation of WS-12-induced Ca2+ influx; for Hill coefficient: hTRPM8-HEK293 Ca2+ microfluorimetry dose-response; for EC50: half of channel activation
T1 construct: expressed in transfected cells
Description: We first evaluated the series of compounds 20–29 synthesized using the Passerini‐Adamantane reaction. All compounds were screened for channel agonism and antagonism on recombinant human TRPM8 stably expressed in HEK293 cells (hTRPM8‐HEK293) with Ca^2+ microfluorimetry. […] Compound‐induced TRPM8‐mediated Ca^2+ influx was confirmed using untransfected HEK293 cells and the channel blocker AMTB. […] The concentration of compounds to reach half of channel activation (EC50) or to block half‐channel activity evoked by WS‐12 (IC50) are reported in Table 1, along with the percentage of maximal activation or blockade (Efficacy).
Assays were conducted to assess the channel activity of the recombinant hTRPM8 stably expressed in HEK‐293 cells. HEK‐293‐hTRPM8 cells were cultured in a monolayer using a DMEM GlutaMax with 10% FBS and 1% P/S and maintained at 37 °C in 5% CO2. For experiments, cells were prepared and seeded at the indicated densities. To evaluate compound effectiveness against hTRPM8 activity, microfluorometry‐based calcium flux assays were performed using Fluo‐4 NW Ca^2+ dye and fluorescence detection. HEK cell lines expressing hTRPM8 were seeded in 96‐well plates and incubated with the dye‐loading solution. Ion channel activity was measured using a plate reader, and fluorescence intensity changes were recorded following the addition of vehicle, compound at varying concentrations, and antagonist (10 μM AMTB). Data analysis included calculating the Z‐factor for each assay and normalizing compound effects to […]. Data were analyzed to determine the concentration exerting half‐maximal inhibition (IC50) or activation (EC50) of agonist‐induced calcium elevation, using GRAPHPAD PRISM8® software (Boston, MA, USA). All experiments were conducted in triplicate, and results are presented as mean ± standard deviation.

[2] = molecular target: T1, recombinant human TRPM8 stably expressed in HEK293 cells (hTRPM8); experiment: as above; format: cell-based; details: agonists vs WS-12, antagonists vs WS-12 response, read-out: Efficacy (percentage of maximal activation or blockade)
[3] = hTRPM8-HEK293, block of half channel activity evoked by WS-12, mean ± SD, N = 3, read-out: IC50
[4] = hTRPM8-HEK293, mean ± SD, N = 3

T1 sequence (Q7Z2W7 whole entry): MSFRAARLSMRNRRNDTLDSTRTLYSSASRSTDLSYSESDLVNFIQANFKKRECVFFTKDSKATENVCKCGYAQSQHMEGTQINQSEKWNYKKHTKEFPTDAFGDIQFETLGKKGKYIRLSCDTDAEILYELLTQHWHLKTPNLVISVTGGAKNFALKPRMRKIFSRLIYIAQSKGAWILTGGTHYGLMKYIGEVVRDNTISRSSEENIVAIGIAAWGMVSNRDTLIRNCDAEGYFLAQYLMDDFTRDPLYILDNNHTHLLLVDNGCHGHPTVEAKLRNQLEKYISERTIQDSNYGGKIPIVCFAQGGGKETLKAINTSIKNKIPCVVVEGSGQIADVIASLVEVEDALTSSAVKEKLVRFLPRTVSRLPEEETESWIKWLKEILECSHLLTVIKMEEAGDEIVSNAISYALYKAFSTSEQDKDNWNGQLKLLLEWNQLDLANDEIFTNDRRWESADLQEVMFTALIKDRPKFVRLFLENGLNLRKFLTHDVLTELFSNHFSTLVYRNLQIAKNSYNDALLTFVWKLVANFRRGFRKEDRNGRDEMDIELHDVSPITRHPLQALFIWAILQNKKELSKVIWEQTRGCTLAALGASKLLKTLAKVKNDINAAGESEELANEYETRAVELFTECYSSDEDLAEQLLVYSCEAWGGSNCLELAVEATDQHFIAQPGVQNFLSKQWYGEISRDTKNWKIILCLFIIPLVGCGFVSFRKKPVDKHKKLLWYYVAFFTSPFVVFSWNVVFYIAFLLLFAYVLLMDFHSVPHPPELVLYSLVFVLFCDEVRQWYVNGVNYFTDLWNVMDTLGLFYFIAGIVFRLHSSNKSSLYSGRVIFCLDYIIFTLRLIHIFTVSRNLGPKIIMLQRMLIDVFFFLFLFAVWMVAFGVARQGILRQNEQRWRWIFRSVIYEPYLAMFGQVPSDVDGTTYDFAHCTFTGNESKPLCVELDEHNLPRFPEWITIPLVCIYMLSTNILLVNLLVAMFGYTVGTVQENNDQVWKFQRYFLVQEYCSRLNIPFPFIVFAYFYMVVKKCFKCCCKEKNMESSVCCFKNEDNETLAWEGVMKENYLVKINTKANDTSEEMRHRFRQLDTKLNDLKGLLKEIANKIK

Row | Structure (SMILES) | Activity (agonist/antagonist) ([1]; hTRPM8-HEK293) | IC50 [1, 3] | Hill coefficient ([1]; mean ± SD) | Emax [2] | EC50 [1, 4] | IC50 [1] | fold lower agonist potency compared with α‐aminoacyl amide 32 ([1]; hTRPM8-HEK293, EC50 comparison)
1 | O=C(CN(C(=O)c1ccccc1-c1ccccc1)C1CC1)NC12CC3CC(CC(C3)C1)C2 [Compound 33, N‐(2‐(((3S,5S,7S)‐adamantan‐1‐yl)amino)‐2‐oxoethyl)‐N‐cyclopropyl‐[1,1′‐biphenyl]‐2‐carboxamide] | moderate antagonistic activity; also recorded: Antagonist | 1100 ± 1200 nM | 2.0 ± 7.8 | 48% |  |  | 
2 | CCCCN(CC(=O)NC12CC3CC(CC(C3)C1)C2)C(C)=O [Compound 39, N‐((3S,5S,7S)‐adamantan‐1‐yl)‐2‐(N‐butylacetamido)acetamide] | Agonist |  | 0.4 ± 9.1 | 64% | 500 ± 1400 nM |  | 
3 | CC(=O)NCCCC(=O)OCC(=O)NC12CC3CC(CC(C3)C1)C2 [Compound 27, 2‐((3S,5S,7S)‐adamantan‐1‐ylamino)‐2‐oxoethyl 4‐acetamidobutanoate] | agonistic activity; also recorded: Agonist |  | 0.3 ± 1.6 | 60% | 600 ± 1200 nM |  | 
4 | O=C(CN(Cc1ccccc1)C(=O)Cc1ccccc1)NC12CC3CC(CC(C3)C1)C2 [Compound 41, N‐(2‐(((3S,5S,7S)‐adamantan‐1‐yl)amino)‐2‐oxoethyl)‐N‐benzyl‐2‐phenylacetamide] | Agonist |  | 2.1 ± 1.0 | 49% | 900 ± 1100 nM |  | 
5 | CC(=O)N(CC(=O)NC12CC3CC(CC(C3)C1)C2)C1CC1 [Compound 34, N‐((3S,5S,7S)‐adamantan‐1‐yl)‐2‐(N‐cyclopropylacetamido)acetamide] | Agonist |  | 0.3 ± 14 | 54% | 200 nM |  | 
6 | CC(=O)N1CCN(CC(=O)NC23CC4CC(CC(C4)C2)C3)CC1 [Compound 45, 2‐(4‐acetylpiperazin‐1‐yl)‐N‐((3S,5S,7S)‐adamantan‐1‐yl)acetamide] | Agonist |  | 0.7 ± 2.1 | 54% | 2300 ± 1600 nM |  | 
7 | O=C(CN1CCN(C(=O)Cc2ccccc2)CC1)NC12CC3CC(CC(C3)C1)C2 [Compound 44, N‐((3S,5S,7S)‐adamantan‐1‐yl)‐2‐(4‐(2‐phenylacetyl)piperazin‐1‐yl)acetamide] | Agonist |  | 0.7 ± 4.0 | 69% | 9600 ± 1500 nM |  | 
8 | CCCC(=O)OCC(=O)NC12CC3CC(CC(C3)C1)C2 [Compound 24, 2‐((3S,5S,7S)‐adamantan‐1‐ylamino)‐2‐oxoethyl butyrate] | agonistic activity; also recorded: Agonist |  | 0.6 ± 0.2 | 19% | 19000 ± 2000 nM |  | 
9 | O=C(COC(=O)Cc1ccccc1)NC12CC3CC(CC(C3)C1)C2 [Compound 21, 2‐((3S,5S,7S)‐adamantan‐1‐ylamino)‐2‐oxoethyl 2‐phenylacetate] | Antagonist |  | 0.5 ± 2.3 | 44% |  | 1500 ± 1100 nM | 
10 | CC(=O)OCC(=O)NC12CC3CC(CC(C3)C1)C2 [Compound 22, 2‐((3S,5S,7S)‐adamantan‐1‐ylamino)‐2‐oxoethyl acetate] | agonistic activity; also recorded: Agonist |  | 0.4 ± 1.3 | 64% | 1100 ± 1500 nM |  | 
11 | O=C(CN1CCN(C(=O)c2ccccc2)CC1)NC12CC3CC(CC(C3)C1)C2 [Compound 42, N‐((3S,5S,7S)‐adamantan‐1‐yl)‐2‐(4‐benzoylpiperazin‐1‐yl)acetamide] | Agonist |  | 0.4 ± 4.3 | 73% | 5400 ± 1500 nM |  | 
12 | CC(=O)N(CC(=O)NC12CC3CC(CC(C3)C1)C2)Cc1ccccc1 [Compound 40, N‐((3S,5S,7S)‐adamantan‐1‐yl)‐2‐(N‐benzylacetamido)acetamide] | Agonist |  | 0.7 ± 2.4 | 86% | 1400 ± 1400 nM |  | 
13 | CC(=O)N(CC(=O)NC12CC3CC(CC(C3)C1)C2)C1CCCCC1 [Compound 37, N‐((3S,5S,7S)‐adamantan‐1‐yl)‐2‐(N‐cyclohexylacetamido)acetamide] | Agonist |  | 0.9 ± 9.2 | 48% | 200 nM |  | 
14 | O=C(CN(C(=O)Cc1ccccc1)C1CC1)NC12CC3CC(CC(C3)C1)C2 [Compound 36, N‐(2‐(((3S,5S,7S)‐adamantan‐1‐yl)amino)‐2‐oxoethyl)‐N‐cyclopropyl‐2‐phenylacetamide] | Agonist |  | 2.3 ± 2.6 | 47% | 4900 ± 1700 nM |  | 
15 | O=C(COC(=O)C1CCCC1)NC12CC3CC(CC(C3)C1)C2 [Compound 25, 2‐((3S,5S,7S)‐adamantan‐1‐ylamino)‐2‐oxoethyl cyclopentane carboxylate] | Antagonist | 45000 ± 2000 nM | 0.8 ± 3.0 | 57% |  |  | 
16 | CCCC(=O)N(CC(=O)NC12CC3CC(CC(C3)C1)C2)C1CC1 [Compound 31, N‐(2‐(((3S,5S,7S)‐adamantan‐1‐yl)amino)‐2‐oxoethyl)‐N‐cyclopropylbutyramide] | Agonist |  | 0.7 ± 2.5 | 72% | 300 nM |  | 
17 | O=C(COC(=O)c1cccnc1)NC12CC3CC(CC(C3)C1)C2 [Compound 26, 2‐((3S,5S,7S)‐adamantan‐1‐ylamino)‐2‐oxoethyl nicotinate] | agonist activity |  | 0.4 ± 6.4 | 72% | 1900 ± 1600 nM |  | 
18 | O=C(COC(=O)c1ccccc1)NC12CC3CC(CC(C3)C1)C2 [Compound 20, 2‐((3S,5S,7S)‐adamantan‐1‐ylamino)‐2‐oxoethyl benzoate] | Antagonist | 1800 ± 1100 nM | 0.4 ± 1.2 | 60% |  |  | 
19 | O=C(COC(=O)c1cccc([N+](=O)[O-])c1)NC12CC3CC(CC(C3)C1)C2 [Compound 29, 2‐((3S,5S,7S)‐adamantan‐1‐ylamino)‐2‐oxoethyl 3‐nitrobenzoate] | Antagonist | 2300 ± 1100 nM | 0.5 ± 3.0 | 69% |  |  | 
20 | O=C(COC(=O)c1ccc(Cl)cc1)NC12CC3CC(CC(C3)C1)C2 [Compound 28, 2‐((3S,5S,7S)‐adamantan‐1‐ylamino)‐2‐oxoethyl 4‐chlorobenzoate] | agonist activity |  | 0.1 ± 0.2 | 87% | 1200 ± 1200 nM |  | 
21 | CC(=O)N(CC(=O)NC12CC3CC(CC(C3)C1)C2)C12CC3CC(CC(C3)C1)C2 [Compound 38, N‐((3S,5S,7S)‐adamantan‐1‐yl)‐2‐(N‐((3S,5S,7S)‐adamantan‐1‐yl)acetamido)acetamide] | Agonist |  | 0.3 ± 3.6 | 65% | 2000 ± 1400 nM |  | 
22 | O=C(CN(C(=O)c1ccccc1)C1CC1)NC12CC3CC(CC(C3)C1)C2 [Compound 30, N‐(2‐(((3S,5S,7S)‐adamantan‐1‐yl)amino)‐2‐oxoethyl)‐N‐cyclopropylbenzamide] | Agonist |  | 0.7 ± 1.6 | 92% | 1500 ± 1500 nM |  | 
23 | O=C(CN1CCN(C(=O)C2CCCC2)CC1)NC12CC3CC(CC(C3)C1)C2 [Compound 43, N‐((3S,5S,7S)‐adamantan‐1‐yl)‐2‐(4‐(cyclopentanecarbonyl)piperazin‐1‐yl)acetamide] | TRPM8 agonist |  | 0.6 ± 1.8 | 82% | 9300 ± 1500 nM |  | > 10 fold
24 | O=C(CN(C(=O)C1CCCC1)C1CC1)NC12CC3CC(CC(C3)C1)C2 [Compound 32, N‐(2‐(((3S,5S,7S)‐adamantan‐1‐yl)amino)‐2‐oxoethyl)‐N‐cyclopropylcyclopentanecarboxamide] | potent hTRPM8 agonist |  | 0.2 ± 1.5 | 56% | 400 nM |  | 
25 | O=C(CN(C(=O)c1cc2ccccc2s1)C1CC1)NC12CC3CC(CC(C3)C1)C2 [Compound 35, N‐(2‐(((3S,5S,7S)‐adamantan‐1‐yl)amino)‐2‐oxoethyl)‐N‐cyclopropylbenzo[b]thiophene‐2‐carboxamide] | moderate antagonistic activity; also recorded: Antagonist | 600 ± 1200 nM | 2.0 ± 4.3 | 40% |  |  | 
